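In this assay, cells in 96-well plates receive the compound at five concentrations for 48 hours. Endpoints are linearly interpolated between the surrounding concentrations. TGI: concentration producing complete growth inhibition.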
How the values were obtained:
Assay in all cases: DTP human tumour cell line panel, 48 h
[1] = test system: SR leukemia
[2] = test system: NCI-H23 lung
[3] = test system: PC-3 prostate
[4] = test system: SK-MEL-5 melanoma
[5] = test system: SNB-75 CNS
[6] = test system: EKVX NSCLC
[7] = test system: HCC-2998 colon
[8] = test system: SF-539 CNS
[9] = test system: NCI/ADR-RES ovarian
[10] = test system: OVCAR-5 ovarian
[11] = test system: TK-10 renal
[12] = test system: T-47D breast
[13] = test system: HCT-116 colon
[14] = test system: OVCAR-8 ovarian
[15] = test system: CCRF-CEM leukemia
[16] = test system: LOX IMVI melanoma
[17] = test system: SK-MEL-2 melanoma
[18] = test system: UO-31 renal
[19] = test system: U251 CNS
[20] = test system: MDA-MB-435
[21] = test system: M14 melanoma
[22] = test system: HCT-15 colon
[23] = test system: IGROV1 ovarian
[24] = test system: 786-0 renal
[25] = test system: HT29 colon
[26] = test system: MDA-N
[27] = test system: K-562 leukemia
[28] = test system: A498 renal
[29] = test system: SW-620 colon
[30] = test system: HS 578T breast
[31] = test system: SNB-19 CNS
[32] = test system: SN12C renal
[33] = test system: ACHN renal
[34] = test system: UACC-257 melanoma
[35] = test system: A549 NSCLC
[36] = test system: RXF 393 renal
[37] = test system: SK-MEL-28 melanoma
[38] = test system: RPMI-8226 leukemia
[39] = test system: HL-60(TB) leukemia
[40] = test system: BT-549 breast
[41] = test system: MOLT-4 leukemia
[42] = test system: COLO 205 colon
[43] = test system: SF-268 CNS
[44] = test system: SF-295 CNS
[45] = test system: NCI-H460 lung
[46] = test system: SK-OV-3 ovarian
[47] = test system: HOP-92 NSCLC
[48] = test system: MDA-MB-231 breast
[49] = test system: CAKI-1 renal
[50] = test system: DU-145 prostate
[51] = test system: NCI-H226 lung
[52] = test system: MALME-3M melanoma
[53] = test system: HOP-62 NSCLC
[54] = test system: UACC-62 melanoma
[55] = test system: KM12 colon
[56] = test system: NCI-H522 lung
[57] = test system: MCF7 breast
[58] = test system: OVCAR-4 ovarian
[59] = test system: OVCAR-3 ovarian

CCOC(O)(NC(=O)C(C(F)(F)F)C(F)(F)F)C(F)(F)F (centres undefined)
TGI [1]: > 100 µM | TGI [2]: > 100 µM | TGI [3]: > 100 µM | TGI [4]: > 100 µM | TGI [5]: > 100 µM | TGI [6]: > 100 µM | TGI [7]: > 100 µM | TGI [8]: > 100 µM | TGI [9]: > 100 µM | TGI [10]: > 100 µM | TGI [11]: > 100 µM | TGI [12]: > 100 µM | TGI [13]: > 100 µM | TGI [14]: > 100 µM | TGI [15]: > 100 µM | TGI [16]: > 100 µM | TGI [17]: > 100 µM | TGI [18]: > 100 µM | TGI [19]: > 100 µM | TGI [20]: > 100 µM | TGI [21]: > 100 µM | TGI [22]: > 100 µM | TGI [23]: > 100 µM | TGI [24]: > 100 µM | TGI [25]: > 100 µM | TGI [26]: > 100 µM | TGI [27]: > 100 µM | TGI [28]: > 100 µM | TGI [29]: > 100 µM | TGI [30]: > 100 µM | TGI [31]: > 100 µM | TGI [32]: > 100 µM | TGI [33]: > 100 µM | TGI [34]: > 100 µM | TGI [35]: > 100 µM | TGI [36]: > 100 µM | TGI [37]: > 100 µM | TGI [38]: > 100 µM | TGI [39]: > 100 µM | TGI [40]: > 100 µM | TGI [41]: > 100 µM | TGI [42]: > 100 µM | TGI [43]: > 100 µM

CC(=O)Nc1ccc2c3c(cc(O)c2c1)N(C(=O)CCCCCC(=O)N1CC(CCl)c2c1cc(O)c1cc(NC(C)=O)ccc21)CC3CCl (centres undefined)
TGI [44]: > 100 µM | TGI [3]: 1.8 µM | TGI [4]: 0.0198 µM | TGI [45]: > 100 µM | TGI [6]: 0.803 µM | TGI [8]: 0.205 µM | TGI [9]: > 100 µM | TGI [10]: 13.3 µM | TGI [11]: > 100 µM | TGI [12]: 0.02 µM | TGI [46]: > 100 µM | TGI [16]: > 100 µM | TGI [20]: 0.187 µM | TGI [21]: 0.125 µM | TGI [47]: 0.0392 µM | TGI [22]: 14.2 µM | TGI [23]: > 87.2 µM | TGI [48]: 0.0503 µM | TGI [24]: 0.0412 µM | TGI [25]: > 33.3 µM | TGI [49]: 0.918 µM | TGI [26]: 0.085 µM | TGI [50]: 0.0392 µM | TGI [27]: > 100 µM | TGI [29]: > 100 µM | TGI [31]: > 100 µM | TGI [51]: 0.0915 µM | TGI [52]: 0.0654 µM | TGI [53]: > 100 µM | TGI [37]: > 100 µM | TGI [54]: 0.0248 µM | TGI [55]: 0.636 µM | TGI [39]: 26 µM | TGI [40]: 0.0736 µM

O=C(NCCCCN(CCCNC(=O)C(F)(F)F)Cc1ccc2ccccc2c1)C(F)(F)F
TGI [56]: 36.7 µM | TGI [2]: 44.6 µM | TGI [44]: 32.7 µM | TGI [57]: 27.8 µM | TGI [4]: 48.9 µM | TGI [5]: 28.5 µM | TGI [45]: 29.9 µM | TGI [6]: 35.8 µM | TGI [7]: 26.8 µM | TGI [8]: 29.8 µM | TGI [9]: 32.7 µM | TGI [10]: 32.6 µM | TGI [11]: 47.9 µM | TGI [12]: 40.2 µM | TGI [13]: 33.9 µM | TGI [14]: 36.1 µM | TGI [46]: 55.6 µM | TGI [16]: 32.7 µM | TGI [18]: 20.5 µM | TGI [19]: 67.2 µM | TGI [20]: 35.7 µM | TGI [21]: 30.3 µM | TGI [47]: 67.1 µM | TGI [22]: 31.1 µM | TGI [23]: 32.9 µM | TGI [48]: 31.1 µM | TGI [24]: 30.6 µM | TGI [25]: 26.6 µM | TGI [49]: 28.1 µM | TGI [26]: 31.6 µM | TGI [50]: 56.1 µM | TGI [27]: 37 µM | TGI [28]: 62.2 µM | TGI [29]: 32.4 µM | TGI [30]: 38.6 µM | TGI [31]: 29 µM | TGI [32]: 30.3 µM | TGI [33]: 38.9 µM | TGI [51]: 56.8 µM | TGI [58]: 37.8 µM | TGI [52]: 29.1 µM | TGI [34]: 33.9 µM | TGI [35]: > 100 µM | TGI [36]: 52.9 µM | TGI [37]: 31.5 µM | TGI [54]: 37 µM | TGI [55]: 32.1 µM | TGI [39]: > 100 µM | TGI [40]: 36.5 µM | TGI [41]: 49 µM | TGI [42]: 30.3 µM | TGI [43]: 31.9 µM

COC(=O)c1cc2c3c(cc(N(C)C)c2[nH]1)N(C(=O)c1cc2cc(OC)c(OC)c(OC)c2[nH]1)CC3CCl (centres undefined)
TGI [56]: 0.0113 µM | TGI [44]: 0.226 µM | TGI [57]: 2.42 µM | TGI [3]: 25 µM | TGI [4]: 0.00591 µM | TGI [5]: 0.00422 µM | TGI [45]: 0.323 µM | TGI [6]: 2.79 µM | TGI [7]: 0.0144 µM | TGI [9]: 0.0548 µM | TGI [10]: 0.25 µM | TGI [12]: 0.642 µM | TGI [13]: < 0.0025 µM | TGI [46]: 0.101 µM | TGI [15]: 0.0538 µM | TGI [17]: 0.0659 µM | TGI [20]: < 0.0025 µM | TGI [21]: 0.00848 µM | TGI [47]: 0.756 µM | TGI [22]: 19.2 µM | TGI [48]: 0.0132 µM | TGI [24]: 0.00487 µM | TGI [25]: > 25 µM | TGI [49]: < 0.0025 µM | TGI [26]: < 0.0025 µM | TGI [50]: < 0.0025 µM | TGI [27]: 0.788 µM | TGI [28]: 0.0292 µM | TGI [31]: 0.0814 µM | TGI [32]: 0.384 µM | TGI [51]: 0.0223 µM | TGI [58]: 0.00605 µM | TGI [52]: < 0.0025 µM | TGI [53]: 0.00774 µM | TGI [36]: < 0.0025 µM | TGI [59]: 0.0136 µM | TGI [37]: 0.0143 µM | TGI [54]: 0.0565 µM | TGI [38]: 0.0324 µM | TGI [55]: 0.0118 µM | TGI [40]: 0.193 µM | TGI [41]: 0.318 µM | TGI [42]: 0.0131 µM | TGI [43]: 0.127 µM

CC(C)(C)OC(=O)NCC(=O)NC1c2ccsc2/C(=N/O)[C@H]1O (some centres undefined)
TGI [1]: > 100 µM | TGI [2]: > 100 µM | TGI [44]: > 100 µM | TGI [57]: > 100 µM | TGI [3]: > 100 µM | TGI [4]: > 100 µM | TGI [45]: > 100 µM | TGI [6]: > 100 µM | TGI [7]: > 100 µM | TGI [8]: > 100 µM | TGI [9]: > 100 µM | TGI [10]: > 100 µM | TGI [11]: > 100 µM | TGI [12]: > 100 µM | TGI [13]: > 100 µM | TGI [14]: > 100 µM | TGI [46]: > 100 µM | TGI [15]: > 100 µM | TGI [16]: > 100 µM | TGI [17]: > 100 µM | TGI [18]: > 100 µM | TGI [19]: > 100 µM | TGI [20]: > 100 µM | TGI [21]: > 100 µM | TGI [47]: > 100 µM | TGI [22]: > 100 µM | TGI [23]: > 100 µM | TGI [48]: > 100 µM | TGI [25]: > 100 µM | TGI [49]: > 100 µM | TGI [26]: > 100 µM | TGI [50]: > 100 µM | TGI [27]: > 100 µM | TGI [28]: > 100 µM | TGI [29]: > 100 µM | TGI [31]: > 100 µM | TGI [32]: > 100 µM | TGI [51]: > 100 µM | TGI [58]: > 100 µM | TGI [52]: > 100 µM | TGI [34]: > 100 µM | TGI [53]: > 100 µM | TGI [35]: > 100 µM | TGI [36]: > 100 µM | TGI [59]: > 100 µM | TGI [37]: > 100 µM | TGI [54]: > 100 µM | TGI [39]: > 100 µM | TGI [40]: > 100 µM | TGI [41]: > 100 µM | TGI [42]: > 100 µM
